# Experimental data from US12014835B2, “Methods for evaluating therapeutic benefit of combination therapies” (Vanderbilt University, priority 2020, dated 2024).
# Assays:
# Type in all cases: cell-based
# PC9 cells = experiment: MuSyC drug combination screen with osimertinib, DIP rate, high-throughput in vitro assay; details: for synergistic efficacy (in words): drug-synergy diagram; for observed synergistic efficacy (βobs): at the maximum tested dose range
# Method: FIG. 2A illustrates a high-throughput pipeline for generating dose-response surfaces. Initial drug matrix is prepared on a 384-well plate and transferred to cells seeded at subconfluent densities. Cells are engineered to express a fluorescently tagged histone (H2B-RFP), allowing for cell counts using automated segmentation software. Each condition is imaged every 6-8 h, resulting in growth curves. The growth curves are fit to determine the drug-induced proliferation (DIP) rate (slope of dotted line, vide infra) to quantify drug effect. This matrix of DIP rates is fit to our equation to extract synergy parameters.
# MuSyC was applied to evaluate the synergistic potency and efficacy of a 64-drug panel (see Table 1 for drugs, drug classes, nominal targets, and tested concentration ranges) in combination with osimertinib, a mutant EGFR-tyrosine kinase inhibitor recently approved for first-line treatment of EGFR-mutant NSCLC. The selected drugs span a diverse array of cellular targets that can be broadly grouped into four categories: kinases, receptors and channels, epigenetic regulators, and mitotic checkpoints, each with several sub-categories. The combinations were tested in PC9 cells, a canonical model of EGFR-mutant NSCLC using a high-throughput, in vitro, drug-screening assay (FIG. 2A).
# Applying this algorithm, synergy parameters (α1, α2, and βobs) were extracted from fitted surfaces for all osimertinib combinations (βobs is the observed synergistic efficacy at the maximum tested dose range).
# A2058 = experiment: MuSyC analysis of PLX4720 in combination with NOX5 inhibitor DPI; details: in combination with PLX4720, A2058 cell line
# Excerpt: FIG. 4E depicts pairwise comparison between SC01 and SC10 of DEGs (FDR<0.001) identified using DESeq2 (Love, M. I. et al., Genome Biol. (2014) Vol. 15, p. 550). The 200 identified DEGs (ANOVA between three subclones) are in black. The dotted red lines denote ±4-fold change. FIG. 4F depicts the dose-response surface for PLX4270 plus DPI (a NOX5 inhibitor) in the A2058 cell line, using the same format as in FIGS. 2B and 2C.
# FIGS. 4G, 4H, and 4I depict additional MuSyC analysis of the effect of the combination therapy with PLX4270 and DPI. FIG. 4G depicts a DSD for NOX5i (DPI) plus BRAFi (PLX4720). FIG. 4H depicts the correlation (Pearson r) of NOX5 expression with observed synergistic efficacy (βobs). FIG. 4I depicts the correlation (Pearson r) of NOX5 expression with synergistic potency, where α2 is DPI's effect on PLX4720 potency. Error bars represent parameter uncertainty calculated in MCMC fitting.
# To study NOX5's contribution to the potency or efficacy of BRAFi, PLX4720 was tested in combination with a NOX5 inhibitor, DPI, in a panel of 7 melanoma cell lines selected based on differential NOX5 expression. […] See also, Meyer et al. in Cell Systems (2010) vol 8, pages 97-108, which is hereby incorporated by reference for all purposes.
# A375_SKIN = experiment: BRAFi sensitivity, DIP rate
# Method: (§1) FIGS. 4A, 4B, and 4C depict data used to identify and characterize the top 200 differentially expressed genes (DEGs) between subclones of a BRAF-mutant melanoma cell line (SKMEL5) with differential sensitivity to BRAFi. FIG. 4A depicts growth curves of differentially sensitive, single-cell-derived subclones from SKMEL5 treated with 8 μM PLX4720. Gray curves represent colony growth according to the clonal fractional proliferation assay (Tyson, D. R. et al., Nature Methods (2012) Vol. 9, pp. 923-928). The average population response is indicated in the black curve. SC01, SC07, and SC10 were subsequently used to identify 200 DEGs. FIG. 4B depicts the top gene set enrichment terms for the identified 200 DEGs. FIG. 4C depicts a distribution of the correlation between the identified 200 DEGs' expression and BRAFi insensitivity. Drug sensitivity was quantified as DIP rate measured in 8 μM PLX4720. The threshold of p value <0.05 is annotated in pink.
# (§2) Specifically, gene expression was quantified using RNA sequencing (RNA-seq) and the top 200 differentially expressed genes (DEGs) (FDR<0.001) were identified. […] The correlation was computed of the 200 DEGs' expression to BRAFi sensitivity across a 10-cell-line panel using expression data from Subramanian, A. et al. (2017). in Cell vol. 171, 1437-1452.e17.
# WM88_SKIN = experiment: BRAFi sensitivity, DIP rate
# Method: as §1, §2
# WM1799_SKIN = experiment: BRAFi sensitivity, DIP rate
# Method: as §1, §2
# SKMEL28_SKIN = experiment: BRAFi sensitivity, DIP rate
# Method: as §1, §2
# WM983B_SKIN = experiment: BRAFi sensitivity, DIP rate
# Method: as §1, §2
# WM115_SKIN = experiment: BRAFi sensitivity, DIP rate
# Method: as §1, §2
# A2058_SKIN = experiment: BRAFi sensitivity, DIP rate
# Method: as §1, §2
# WM793_SKIN = experiment: BRAFi sensitivity, DIP rate
# Method: as §1, §2
# SKMEL5_SKIN = experiment: BRAFi sensitivity, DIP rate
# Method: as §1, §2
# WM2664_SKIN = experiment: BRAFi sensitivity, DIP rate
# Method: as §1, §2
# [1] = in combination with osimertinib, PC9 cells
smiles,measurement,setting,value
COC(=O)Nc1nc2ccc(Oc3ccc(NC(=O)Nc4ccccc4)cc3)cc2[nH]1 [GW694590a],synergistic efficacy (in words),PC9 cells; [1],synergistically efficacious
Cc1cc(Nc2ncc(Cl)c(Nc3ccccc3S(=O)(=O)C(C)C)n2)c(OC(C)C)cc1C1CCNCC1 [ceritinib],EC50,"PC9 cells; Homo sapiens, PC-9, single agent, PC9 cells, DIP rate",2020 nM
same,synergistic potency log(α2): how osimertinib's potency is modulated by the drug,PC9 cells; [1],6.25±0.50
same,observed synergistic efficacy (βobs),PC9 cells; [1],0.28 ±0.003
c1ccc2c(c1)[I+]c1ccccc1-2 [DPI],observed synergistic efficacy (βobs),A2058,1.42 ±0.05
Nc1ccccc1NC(=O)c1ccc(CNC(=O)OCc2cccnc2)cc1 [entinostat],observed synergistic efficacy (βobs),PC9 cells; [1],0.84±0.027
CCCCc1oc2ccc(NS(C)(=O)=O)cc2c1C(=O)c1ccc(OCCCN(CCCC)CCCC)cc1 [dronedarone],synergistic efficacy (in words),PC9 cells; [1],most antagonistic
CC[C@]1(O)C[C@@H]2CN(CCc3c([nH]c4ccccc34)[C@@](C(=O)OC)(c3cc4c(cc3OC)N(C)[C@H]3[C@@](O)(C(N)=O)[C@H](O)[C@]5(CC)C=CCN6CC[C@]43[C@@H]65)C2)C1 [vindesine],synergistic efficacy (in words),PC9 cells; [1],upward shift along the axis of synergistic efficacy
CCCS(=O)(=O)Nc1ccc(F)c(C(=O)c2c[nH]c3ncc(Cl)cc23)c1F [PLX4270],DIP Rate at [8 uM] PLX4270,A375_SKIN,0.005 h⁻¹
same,DIP Rate at [8 uM] PLX4270,WM88_SKIN,-0.020 h⁻¹
same,DIP Rate at [8 uM] PLX4270,WM1799_SKIN,-0.002 h⁻¹
same,DIP Rate at [8 uM] PLX4270,SKMEL28_SKIN,0.010 h⁻¹
same,DIP Rate at [8 uM] PLX4270,WM983B_SKIN,0.021 h⁻¹
same,DIP Rate at [8 uM] PLX4270,WM115_SKIN,0.013 h⁻¹
same,DIP Rate at [8 uM] PLX4270,A2058_SKIN,0.030 h⁻¹
same,DIP Rate at [8 uM] PLX4270,WM793_SKIN,0.015 h⁻¹
same,DIP Rate at [8 uM] PLX4270,SKMEL5_SKIN,0.014 h⁻¹
same,DIP Rate at [8 uM] PLX4270,WM2664_SKIN,0.003 h⁻¹
CN(C)c1ccc(C(=O)NCCCCCCC(=O)NO)cc1 [M344],increase in efficacy over osimertinib alone,PC9 cells; [1],125%
same,synergistic potency log(α2): how osimertinib's potency is modulated by the drug,PC9 cells; [1],−0.90±0.01
same,observed synergistic efficacy (βobs),PC9 cells; [1],1.25±0.03
Cn1cc(CNCC2CCN(c3ncc(C(=O)NO)cn3)CC2)c2ccccc21 [quisinostat],total efficacy of the combination (in words),"PC9 cells; in combination with osimertinib, NSCLC screen",greatest total efficacy
